# Results as given in patent US9493461B2, “Tetracyclic heterocycle compounds and methods of use thereof for the treatment of hepatitis C” (priority 2013, dated 2016).
# pIC50: −log10 of the molar value. Read-outs that look alike come from different tables or passages of the source.
# Tests used:
# HCV replicon genotype 1a = assay: HCV replicon assay, genotype 1a (cell ELISA for replicon-encoded NS3/4A); assay type: cell-based, hepatitis C virus (HCV); conditions: for IC50: Hepatitis C virus, 96 h, read-out: 1a IC50 (nM), genotype 1a replicon cells, 96 hours incubation, NS3/4A ELISA readout, % of DMSO control; for pIC50: read-out: 1a IC50, genotype 1a replicon cells, 96 hours incubation, NS3/4A ELISA readout, % of DMSO control
# Experimental: Measurement of inhibition by compounds was performed using the HCV replicon system. Several different replicons encoding different HCV genotypes or mutations were used. In addition, potency measurements were made using different formats of the replicon assay, including different ways of measurements and different plating formats. See Jan M. Vrolijk et al., A replicons-based bioassay for the measurement of interferons in patients with chronic hepatitis C, 110 J. V[…] 201 (2003); Steven S. Carroll et al., Inhibition of Hepatitis C Virus RNA Replication by 2′-Modified Nucleoside Analogs, 278(14) J. BIOLOGICAL CHEMISTRY 11979 (2003). However, the underlying principles are common to all of these determinations, and are outlined below.
# (§1) Stable neomycin phosphotransferase encoding replicons-harboring cell lines were used, so all cell lines were maintained under G418 selection prior to the assay. Potency was determined using a cell ELISA assay with an antibody to the replicons encoded NS3/4a protease. See Caterina Trozzi et al., In Vitro Selection and Characterization of Hepatitis C Virus Serine Protease Variants Resistant to an Active-Site Peptide Inhibitor, 77(6) J. Virol. 3669 (2003). To initiate an assay, replicon cells were plated in the presence of a dilution series of test compound in the absence of G418. Typically, the assays were performed in a 96-well plate formate for manual operation, or a 384-well plate format for automated assay. Replicon cells and compound were incubated for 96 hours. At the end of the assay, cells were washed free of media and compound, and the cells were then lysed. RNA was quantified indirectly through detection of replicon-encoded NS3/4A protein levels, through an ELISA-based assay with an antibody specific for NS3/4A. IC50 determinations were calculated as a percentage of a DMSO control by fitting the data to a four-parameter fit function and the data obtained is provided in the table below.
# (§2) Data for selected compounds of the present invention was obtained for genotypes 1a and 1b using this method and is provided in the table below: […]
# HCV replicon genotype 1b = assay: HCV replicon assay, genotype 1b (cell ELISA for replicon-encoded NS3/4A); assay type: cell-based, hepatitis C virus (HCV); conditions: for IC50: Hepatitis C virus, 96 h, read-out: 1b IC50 (nM), genotype 1b replicon cells, 96 hours incubation, NS3/4A ELISA readout, % of DMSO control; for pIC50: read-out: 1b IC50, genotype 1b replicon cells, 96 hours incubation, NS3/4A ELISA readout, % of DMSO control
# Experimental: The HCV NS5B inhibitory activity of the present compounds may be tested using assays known in the art. The HCV NS5B polymerase inhibitors described herein have activities in a genotype 1b replicon assay as described in the Examples. The assay is performed by incubating a replicon harboring cell-line in the presence of inhibitor for a set period of time and measuring the effect of the inhibitor on HCV replicon replication either directly by quantifying replicon RNA level, or indirectly by measuring enzymatic activity of a co-encoded reporter enzyme such as luciferase or β-lactamase. By performing a series of such measurements at different inhibitor concentrations, the effective inhibitory concentration of the inhibitor (EC50 or EC90) is determined See Jan M. Vrolijk et al., A replicons-based bioassay for the measurement of interferons in patients with chronic hepatitis C, 110 J. VIROLOGICAL METHODS 201 (2003). Such assays may also be run in an automated format for high through-put screening. See Paul Zuck et al., A cell-based β-lactamase reporter gene assay for the identification of inhibitors of hepatitis C virus replication, 334 ANALYTICAL BIOCHEMISTRY 344 (2004).
# Measurement of inhibition by compounds was performed using the HCV replicon system. Several different replicons encoding different HCV genotypes or mutations were used. In addition, potency measurements were made using different formats of the replicon assay, including different ways of measurements and different plating formats. See Jan M. Vrolijk et al., A replicons-based bioassay for the measurement of interferons in patients with chronic hepatitis C, 110 J. VIROLOGICAL METHODS 201 (2003); Steven S. Carroll et al., Inhibition of Hepatitis C Virus RNA Replication by 2′-Modified Nucleoside Analogs, 278(14) J. BIOLOGICAL CHEMISTRY 11979 (2003). However, the underlying principles are common to all of these determinations, and are outlined below.
# as §1, §2
SMILES,IC50 (HCV replicon genotype 1a),IC50 (HCV replicon genotype 1b),pIC50 (HCV replicon genotype 1a),pIC50 (HCV replicon genotype 1b)
CNC(=O)c1c(-c2ccc(F)cc2F)oc2cc(N(C)S(C)(=O)=O)c(-c3ccc4nc(CN5CC[C@H](F)C5)n5c6cccc(F)c6cc5c4n3)cc12 [Example 45],4.43 nM,4.29 nM,,
CNC(=O)c1c(-c2ccc(F)cc2)oc2cc(N(C)S(C)(=O)=O)c(-c3cc4c(cn3)nc(CS(C)(=O)=O)n3c5cccc(F)c5cc43)cc12 [Example 24],2.73 nM,1.9 nM,,
CNC(=O)c1c(-n2ccc(C)cc2=O)oc2cc(N(C)S(C)(=O)=O)c(-c3ccc4ncn5c6cccc(F)c6cc5c4n3)cc12 [Example 12],2.11 nM,2.36 nM,,
CNC(=O)c1c(-c2ccc(F)nc2)oc2cc(N(C)S(C)(=O)=O)c(-c3ccc4ncn5c6cccc(F)c6cc5c4n3)cc12 [Example 7],1.49 nM,3.6 nM,,
CNC(=O)c1c(-c2ccc(F)cc2)oc2cc(N(C)S(C)(=O)=O)c(-c3cnc4c(c3)-c3cc5c(F)cccc5n3CN4)cc12 [Example 57],2.66 nM,3.11 nM,,
CNC(=O)c1c(-c2ccc(F)cc2)oc2cc(N(C)S(C)(=O)=O)c(-c3ccc4nc(CN5CC6(CCOCC6)C5)n5c6cccc(F)c6cc5c4n3)cc12 [Example 79],2.37 nM,3.99 nM,,
CNC(=O)c1c(-c2ccc(F)cc2)oc2cc(N(C)S(C)(=O)=O)c(-c3ccc4nc(CN5CC(O)(C6CC6)C5)n5c6cccc(F)c6cc5c4n3)cc12 [Example 95],4.55 nM,9.12 nM,,
CNC(=O)c1c(-c2ccc(F)cc2)oc2cc(N(C)S(C)(=O)=O)c(-c3ccc4nc(CC5CC[C@@H](OC)C5)n5c6cccc(C#N)c6cc5c4n3)cc12 (stereo partly shown) [Example 133],2.98 nM,3.56 nM,,
CNC(=O)c1c(-c2ccc(F)cc2)oc2cc(N(C)S(C)(=O)=O)c(-c3ccc4nc(CN5CC6CC5CO6)n5c6cccc(F)c6cc5c4n3)cc12 (stereo not shown) [Example 109],8.1 nM,11.2 nM,,
"CNC(=O)c1c(-c2ccc(F)cc2)oc2cc(N(C)S(C)(=O)=O)c(-c3ccc4ncn5c6cccc(F)c6cc5c4n3)cc12 [Example 55, 2-(4-fluorophenyl)-5-(11-fluoropyrido[3′,2′:4,5]pyrimido[1,6-a]indol-2-yl)-N-methyl-6-(N-methylmethylsulfonamido)benzofuran-3-carboxamide]",,,8.81,8.70
CNC(=O)c1c(-c2ccc(F)cc2F)oc2cc(N(C)S(C)(=O)=O)c(-c3ccc4nc(CN5CC(C)(O)C5)n5c6cccc(F)c6cc5c4n3)cc12 [Example 142],3.05 nM,2.85 nM,,
CNC(=O)c1c(-c2ccc(F)cc2)oc2cc(N(C)S(C)(=O)=O)c(-c3ccc4nc(CN5CC[C@@H](O)C5)n5c6cccc(F)c6cc5c4n3)cc12 [Example 87],1.28 nM,1.26 nM,,
"CNC(=O)c1c(-c2ccc(F)cc2)oc2cc(N(C)S(C)(=O)=O)c(-c3ccc4c(c3)-c3cc5ccccc5n3CN4S(C)(=O)=O)cc12 [Example 42, 2-(4-fluorophenyl)-N-methyl-6-(N-methylmethylsulfonamido)-5-(5-(methylsulfonyl)-5,6-dihydroindolo[1,2-c]quinazolin-2-yl)benzofuran-3-carboxamide]",17.2 nM,13.1 nM,,
CNC(=O)c1c(-c2ccc(F)cc2F)oc2cc(N(C)S(C)(=O)=O)c(-c3ccc4nc(CN5CC(C(C)(C)O)C5)n5c6cccc(F)c6cc5c4n3)cc12 [Example 143],5.17 nM,6.21 nM,,
CNC(=O)c1c(-c2ccc(F)cc2)oc2cc(N(C)S(C)(=O)=O)c(-c3ccc4nc(CN5C[C@H](F)[C@@H](F)C5)n5c6cccc(F)c6cc5c4n3)cc12 [Example 101],3.13 nM,4.24 nM,,
CNC(=O)c1c(-c2ccc(F)cc2)oc2cc(N(C)S(C)(=O)=O)c(-c3ccc4nc(CN5CC(C)(O)C5)n5c6cccc(F)c6cc5c4n3)cc12 [Example 78],2.8 nM,3.34 nM,,
CNC(=O)c1c(-c2ccc(F)cc2)oc2cc(N(C)S(C)(=O)=O)c(-c3ccc4nc(CN5CC[C@@H](F)C5)n5c6cccc(C#N)c6cc5c4n3)cc12 [Example 135],,,8.57,8.44
"CNC(=O)c1c(-c2ccc(F)cc2)oc2cc(N(C)S(C)(=O)=O)c(-c3ccc4nc(CS(C)(=O)=O)n5c6cccc(F)c6cc5c4n3)cc12 [Example 23, 5-(11-fluoro-6-((methylsulfonyl)methyl)pyrido[3′,2′:4,5]pyrimido[1,6-a]indol-2-yl)-2-(4-fluorophenyl)-N-methyl-6-(N-methylmethylsulfonamido)benzofuran-3-carboxamide]",1.85 nM,2.98 nM,,
CNC(=O)c1c(-c2ccc(F)cc2)oc2cc(N(C)S(C)(=O)=O)c(-c3ccc4nc(CN(C)CC(=O)N(C)C)n5c6cccc(F)c6cc5c4n3)cc12 [Example 115],2.19 nM,4.93 nM,,
CNC(=O)c1c(-c2ccc(F)cc2)oc2cc(N(C)S(C)(=O)=O)c(-c3ccc4nc(CN5CC(F)(F)C5)n5c6cccc(C#N)c6cc5c4n3)cc12 [Example 124],1.89 nM,1.76 nM,,
CNC(=O)c1c(-c2ccc(F)cc2F)oc2cc(N(C)S(C)(=O)=O)c(-c3ccc4nc(CN5CC(C)(C#N)C5)n5c6cccc(F)c6cc5c4n3)cc12 [Example 139],2.79 nM,3.16 nM,,
CNC(=O)c1c(-c2ccc(F)cc2)oc2cc(N(C)S(C)(=O)=O)c(-c3ccc4nc(CN5CC(OC)C5)n5c6cccc(C#N)c6cc5c4n3)cc12 [Example 125],2.32 nM,3.21 nM,,
CNC(=O)c1c(-c2ccc(F)cc2)oc2cc(N(C)S(C)(=O)=O)c(-c3ccc4nc(CN5CCC(F)(F)CC5)n5c6cccc(F)c6cc5c4n3)cc12 [Example 92],14.6 nM,23.7 nM,,
"CNC(=O)c1c(-n2ccccc2=O)oc2cc(N(C)S(C)(=O)=O)c(-c3ccc4ncn5c6cccc(F)c6cc5c4n3)cc12 [Example 11, 5-(11-fluoropyrido[3′,2′:4,5]pyrimido[1,6-a]indol-2-yl)-N-methyl-6-(N-methylmethylsulfonamido)-2-(2-oxopyridin-1(2H)-yl)benzofuran-3-carboxamide]",2.03 nM,2.26 nM,,
CNC(=O)c1c(-c2ccc(F)cc2)oc2cc(N(C)S(C)(=O)=O)c(-c3ccc4nc(CN5CC[C@@H](F)C5)n5c6cccc(F)c6cc5c4n3)cc12 [Example 85],1.76 nM,2.34 nM,,
CNC(=O)c1c(-c2ccc(F)cc2)oc2cc(N(C)S(C)(=O)=O)c(-c3ccc4nc(CN5CC6CC6C5)n5c6cccc(F)c6cc5c4n3)cc12 (stereo not shown) [Example 102],7.03 nM,11.8 nM,,
CNC(=O)c1c(-c2ccc(F)cc2)oc2cc(N(C)S(C)(=O)=O)c(-c3ccc4nc(CN5CC(S(C)(=O)=O)C5)n5c6cccc(F)c6cc5c4n3)cc12 [Example 107],3.33 nM,3.04 nM,,
CNC(=O)c1c(-c2ccc(C)nc2)oc2cc(N(C)S(C)(=O)=O)c(-c3cc4c(cn3)ncn3c5cccc(F)c5cc43)cc12 [Example 19],2.79 nM,5.64 nM,,
CNC(=O)c1c(-c2ccc(F)cc2)oc2cc(N(C)S(C)(=O)=O)c(-c3ccc4nc(CN5CC[C@H](OC)C5)n5c6cccc(F)c6cc5c4n3)cc12 [Example 91],3.58 nM,6.54 nM,,
